According to article PMC7155755, “Binding of the Human 14-3-3 Isoforms to Distinct Sites in the Leucine-Rich Repeat Kinase 2” (Frontiers in Neuroscience, 2020):
“Also recorded” adds a separate entry of the source. Each block holds one molecule with its values, some of them ahead of it. Square brackets hold non-standard residues; d marks the D form. Primed or numbered codes have the meaning given here. Ends that are not written are not given here. fluorescein″ = fluorescein label on the N-terminus; fluorescein = N-terminal fluorescein label; pS = N[C@@H](COP(=O)(O)O)C(=O)O

What was measured:
human 14-3-3γ = target: T1, human 14-3-3γ (Homo sapiens, UniProt P61981); experiment: Fluorescence polarization (FP) direct binding assay; details: fluorescein-labeled peptide 1 nM; for Kd: 20 mM MOPS pH 7, 150 mM NaCl, 0.005% CHAPS, at least three independent measurements, read-out: Binding affinity (KD) toward 14-3-3 isoform γ; for Binding to 14-3-3γ, in words: dilution series of 14-3-3γ (at least 5 μM down to pM), FP buffer pH 7
T1 construct: MBP (cleaved yes); made in house; host or cells: E. coli BL21DE3
T1 sequence (P61981 1-247): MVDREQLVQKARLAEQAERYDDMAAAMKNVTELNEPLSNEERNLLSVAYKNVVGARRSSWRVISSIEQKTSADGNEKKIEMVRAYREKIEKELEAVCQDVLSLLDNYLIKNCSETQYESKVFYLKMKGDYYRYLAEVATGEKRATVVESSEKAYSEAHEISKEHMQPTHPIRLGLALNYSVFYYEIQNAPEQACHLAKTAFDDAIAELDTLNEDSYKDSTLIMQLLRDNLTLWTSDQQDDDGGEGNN
Procedure: (§1) Human MBP-tagged 14-3-3 isoforms were expressed from pMAL2CX plasmids [[Kilisch et al. (2016)], [Yuan et al. (2003)]] in E. coli BL21DE3 cells. After induction with […] isopropyl-β-D-thiogalactoside, the protein was expressed for 4 h at room temperature. Cells were lysed in MBP-lysis buffer [50 mM Tris–HCl pH 7.5, 150 mM NaCl, 5 mM MgCl2, 1 mM PMSF, 1× cOmplete Protease Inhibitor EDTA-free (Roche)] using a French Pressure cell (FRENCH Press, Thermo, United States). Following centrifugation at 42,000 × g and 4°C for 30 min, the supernatant was transferred to a Maltose-agarose column (1.5 ml bed volume; New England Biolabs GmbH, Germany). Captured proteins were washed six times with 10 ml wash buffer (50 mM Tris–HCl pH 7.5, 150 mM NaCl, 5 mM MgCl2) prior to elution using wash buffer including 15 mM D-maltose. To remove the MBP tag, fusion proteins were incubated with Factor Xa (New England Biolabs GmbH, Germany), at a final concentration of 0.4 μg per 1 mg fusion protein for 24 h at RT following another 72 h at 4°C. Anion exchange chromatography was finally applied to separate residual MBP using a buffer gradient from 20 mM Tris pH 8 to 20 mM Tris pH 8 with 1 M NaCl. For this a RESOURCE Q column (GE Healthcare, United Kingdom) was utilized, employing an ÄKTApurifier (GE Healthcare, United Kingdom) or an NGC Quest Chromatography System (Bio-Rad Laboratories GmbH, Germany).
(§2) FP was used to determine binding affinities of different phosphorylated and non-phosphorylated peptides derived from LRRK2 sequences (Peps4LS GmbH, Germany) toward human 14-3-3 isoforms. Direct binding assays were performed and evaluated as previously described ([Muda et al., 2014]; [Manschwetus et al., 2019]). Briefly, both dilution series of 14-3-3 isoforms ranging from final concentrations of at least 5 μM down to picomolar concentrations and dilutions of the respective fluorescein-labeled peptide (final conc. 1 nM) were prepared in FP buffer (20 mM MOPS pH 7, 150 mM NaCl, 0.005% CHAPS). Subsequently, samples were mixed in 384-well microtiter plates as duplicates (BRAND plates, pureGrade, black, BRAND GmbH & Co. KG, Germany) in a 1:1 ratio and measured using a CLARIOstar plate reader (BMG LABTECH, Germany). Two protein preparations were utilized for at least two independent replications for all measurements while high affinity binding peptides were particularly measured with a minimum of three independent replications for statistical evaluation. Data was analyzed with GraphPad Prism 6.0 (GraphPad Software, San Diego, CA, United States) by plotting obtained FP signals (mPol) against the logarithmic 14-3-3 protein concentrations. Data points represent means ± standard error of mean (SEM) of duplicates. “Ctrl.” indicates the FP signal of fluorescein-labeled peptides without 14-3-3 protein. Sigmoidal dose-response fitting was performed to define KD-values.

[1] = tested on: all seven human 14-3-3 isoforms; experiment: Fluorescence polarization (FP) direct binding assay, statements over all isoforms; details: for Binding to the human 14-3-3 isoforms, in words: FP direct binding, all seven isoforms, fluorescein-labeled peptide 1 nM, FP buffer pH 7
Procedure: as §1, §2

pS1444 = experiment: fluorescence polarisation; direct binding; dilution series of 14-3-3 isoform (at least 5 μM down to picomolar) mixed with 1 nM fluorescein-labelled peptide; 20 mM MOPS pH 7, 150 mM NaCl, 0.005% CHAPS; 384-well plates
R1441C/pS1444 = target: T2, R1441C/pS1444 (R1441C (stands in the printed letters)); experiment: as above; details: both partners purified
T2 construct: LRRK2-derived peptide of the Roc domain with the familial PD mutation R1441C, phosphorylated at S1444; source: synthetic peptide (Peps4LS GmbH)
T2 peptide: fluorescein-LFNIKACAS[pS]SPVILVGT

Molecule: CC[C@H](C)[C@H](NC(=O)[C@@H]1CCCN1C(=O)CNC(=O)[C@H](CC(C)C)NC(=O)[C@H](COP(=O)(O)O)NC(=O)[C@H](CC(N)=O)NC(=O)[C@H](CO)NC(=O)[C@H](Cc1c[nH]cn1)NC(=O)[C@H](CCCNC(=N)N)NC(=O)[C@H](CCCNC(=N)N)NC(=O)[C@H](CC(C)C)NC(=O)[C@H](CC(N)=O)NC(=O)[C@@H]1CCCN1C(=O)[C@H](CO)NC(=O)[C@H](CS)NC(=O)[C@@H](N)CCCNC(=N)N)C(=O)N[C@@H](Cc1ccccc1)C(=O)N[C@@H](CC(=O)O)C(=O)N[C@@H](Cc1c[nH]cn1)C(=O)O [Q930R/pS935]
Kd (human 14-3-3γ): 11.1 ± 10.7 nM

Molecule: KKSN SISVGEFYRDAVLQRCSPNLQRHSNSLGPIF ({fluorescein″}-KKSNSISVGEFYRDAVLQRCSPNLQRHSNSLGPIF) [S910/S935, fluorescein-labeled non-phosphorylated LRRK2-derived 35-mer encompassing S910 and S935]
Binding to 14-3-3γ, in words (human 14-3-3γ): did not bind

Molecule: KKSNSISVGEFYRDAVLQRCSPNLQRHSNpSLGPIF [S910/pS935, fluorescein-labeled LRRK2-derived 35-mer singly phosphorylated at S935]
Binding to 14-3-3γ, in words (human 14-3-3γ): only weak interactions | Binding to the human 14-3-3 isoforms, in words [1]: no isoform specificity could be distinguished

Molecule: LFNIKACASSSPVILVGT [R1441C, fluorescein-labeled non-phosphorylated LRRK2 Roc domain peptide with mutation R1441C]
Binding to 14-3-3γ, in words (human 14-3-3γ): did not bind; also recorded: no binding | Binding to the human 14-3-3 isoforms, in words [1]: did not bind any of the 14-3-3 isoforms

Molecule: LFNIKACASpSSPVILVGT [R1441C/pS1444, fluorescein-labeled LRRK2 Roc domain peptide with R1441C and pS1444]
Binding to 14-3-3γ, in words (human 14-3-3γ): micromolar affinities; also recorded: strongly decreased the nanomolar affinity of pS1444 alone | Binding to the human 14-3-3 isoforms, in words [1]: affinities in the micromolar range | Factor by which the mutation R1441C decreases the affinity to all 14-3-3 isoforms ([1]; FP, R1441C/pS1444 compared with pS1444): ≥ 30

Molecule: LFNIKARASSSPVILVGT [S1443/S1444, fluorescein-labeled non-phosphorylated LRRK2 Roc domain peptide covering S1443 and S1444]
Binding to the human 14-3-3 isoforms, in words [1]: no detectable binding

Molecule: RCSPNLRRHSNSLGPIFDH [Q930R, fluorescein-labeled non-phosphorylated LRRK2-derived peptide with mutation Q930R]
Binding to 14-3-3γ, in words (human 14-3-3γ): neither the Q930R mutation nor the additional phosphorylation in pS933 could induce binding

Molecule: RCSPNLRRHpSNSLGPIFDH [Q930R/pS933, fluorescein-labeled LRRK2-derived peptide with mutation Q930R and pS933]
Binding to the human 14-3-3 isoforms, in words [1]: no 14-3-3 binding was detectable

Molecule: SPNLQRHSNpSLGPIF [pS935, fluorescein-labeled LRRK2-derived phosphopeptide covering pS935]
Binding to 14-3-3γ, in words (human 14-3-3γ): did not bind; also recorded: no binding was detected | Binding to the human 14-3-3 isoforms, in words [1]: no binding could be detected; also recorded: could not detect binding; also recorded: non-binding

B2: human 14-3-3 isoform β (recombinant, MBP tag removed) (natural protein, UniProt P31946 1-246, looked up)
chain: MTMDKSELVQKAKLAEQAERYDDMAAAMKAVTEQGHELSNEERNLLSVAYKNVVGARRSSWRVISSIEQKTERNEKKQQMGKEYREKIEAELQDICNDVLELLDKYLIPNATQPESKVFYLKMKGDYFRYLSEVASGDNKQTTVSNSQQAYQEAFEISKKEMQPTHPIRLGLALNFSVFYYEILNSPEKACSLAKTAFDEAIAELDTLNEESYKDSTLIMQLLRDNLTLWTSENQGDEGDAGEGEN
notes: 14-3-3 beta, human; Expressed from pMAL2CX plasmids; also called 14-3-3β; source: E. coli BL21DE3, purified (maltose-agarose, Factor Xa, anion exchange)
Kd (pS1444): 183 nM | fold decrease in affinity against pS1444 (R1441C/pS1444): ≥ 30 fold

B3: human 14-3-3 isoform ε (recombinant, MBP tag removed) (natural protein, UniProt P62258 1-255, looked up)
chain: MDDREDLVYQAKLAEQAERYDEMVESMKKVAGMDVELTVEERNLLSVAYKNVIGARRASWRIISSIEQKEENKGGEDKLKMIREYRQMVETELKLICCDILDVLDKHLIPAANTGESKVFYYKMKGDYHRYLAEFATGNDRKEAAENSLVAYKAASDIAMTELPPTHPIRLGLALNFSVFYYEILNSPDRACRLAKAAFDDAIAELDTLSEESYKDSTLIMQLLRDNLTLWTSDMQGDGEEQNKEALQDVEDENQ
notes: 14-3-3 epsilon, human; Expressed from pMAL2CX plasmids; also called 14-3-3ε; source: E. coli BL21DE3, purified (maltose-agarose, Factor Xa, anion exchange)
Kd (pS1444): > 1000 nM | fold decrease in affinity against pS1444 (R1441C/pS1444): ≥ 30 fold

The next lines start with results.

Kd (human 14-3-3γ): 3.2 ± 0.5 nM
Molecule: CC[C@H](C)[C@H](NC(=O)[C@H](COP(=O)(O)O)NC(=O)[C@H](CC(N)=O)NC(=O)[C@H](CO)NC(=O)[C@H](CCCCN)NC(=O)[C@@H](N)CCCCN)C(=O)N[C@@H](CO)C(=O)N[C@H](C(=O)NCC(=O)N[C@@H](CCC(=O)O)C(=O)N[C@@H](Cc1ccccc1)C(=O)N[C@@H](Cc1ccc(O)cc1)C(=O)N[C@@H](CCCNC(=N)N)C(=O)N[C@@H](CC(=O)O)C(=O)N[C@@H](C)C(=O)N[C@H](C(=O)N[C@@H](CC(C)C)C(=O)N[C@@H](CCC(N)=O)C(=O)N[C@@H](CCCNC(=N)N)C(=O)N[C@@H](CS)C(=O)N[C@@H](CO)C(=O)N1CCC[C@H]1C(=O)N[C@@H](CC(N)=O)C(=O)N[C@@H](CC(C)C)C(=O)N[C@@H](CCC(N)=O)C(=O)N[C@@H](CCCNC(=N)N)C(=O)N[C@@H](Cc1c[nH]cn1)C(=O)N[C@@H](CO)C(=O)N[C@@H](CC(N)=O)C(=O)N[C@@H](COP(=O)(O)O)C(=O)N[C@@H](CC(C)C)C(=O)NCC(=O)N1CCC[C@H]1C(=O)N[C@H](C(=O)N[C@@H](Cc1ccccc1)C(=O)O)[C@@H](C)CC)C(C)C)C(C)C [pS910/pS935]

Binding to 14-3-3γ, in words (human 14-3-3γ): only weak interactions
Molecule: KKSNpSISVGEFYRDAVLQRCSPNLQRHSNSLGPIF [pS910/S935, fluorescein-labeled LRRK2-derived 35-mer singly phosphorylated at S910]
Binding to the human 14-3-3 isoforms, in words [1]: no isoform specificity could be distinguished

Binding to 14-3-3γ, in words (human 14-3-3γ): did not allow for binding
Molecule: LFNIKARApSSSPVILVGT [pS1443, fluorescein-labeled LRRK2 Roc domain phosphopeptide, pS1443]
Binding to the human 14-3-3 isoforms, in words [1]: no detectable binding; also recorded: not demonstrated for any isoform

Binding to the human 14-3-3 isoforms, in words [1]: no 14-3-3 binding was detectable
Molecule: RCSPNLQRHpSNSLGPIFDH [pS933, fluorescein-labeled LRRK2-derived phosphopeptide covering pS933]
Binding to 14-3-3γ, in words (human 14-3-3γ): neither the Q930R mutation nor the additional phosphorylation in pS933 could induce binding

Kd (pS1444): 476 nM | fold decrease in affinity against pS1444 (R1441C/pS1444): ≥ 30 fold
B1: human 14-3-3 isoform ζ (recombinant, MBP tag removed) (natural protein, UniProt P63104 1-245, looked up)
chain: MDKNELVQKAKLAEQAERYDDMAACMKSVTEQGAELSNEERNLLSVAYKNVVGARRSSWRVVSSIEQKTEGAEKKQQMAREYREKIETELRDICNDVLSLLEKFLIPNASQAESKVFYLKMKGDYYRYLAEVAAGDDKKGIVDQSQQAYQEAFEISKKEMQPTHPIRLGLALNFSVFYYEILNSPEKACSLAKTAFDEAIAELDTLSEESYKDSTLIMQLLRDNLTLWTSDTQGDEAEAGEGGEN
notes: 14-3-3 zeta, human; Expressed from pMAL2CX plasmids; also called 14-3-3ζ; source: E. coli BL21DE3, purified (maltose-agarose, Factor Xa, anion exchange)
